{"source": "patent US20250134952A1", "about": "“METHODS FOR IMPROVING THE EFFICACY OF HDAC INHIBITOR THERAPY AND PREDICTING THE RESPONSE TO TREATMENT WITH HDAC INHIBITOR” (INSTITUT NATIONAL DE LA SANTÉ ET DE LA RECHERCHE MÉDICALE, priority 2021, published 2025)", "key": {"[1]": {"test_system": "MCF7shctrl and MCF7shTau subclones", "assay": "Cell death by staining and flow cytometric analysis (Zombie NIR)", "format": "cell-based, human", "conditions": "100 nM TSA, 48 hours", "protocol": "FIG. 1: Tau inhibition increases MCF7 breast cancer cell line sensitivity to TSA. (A) Tau protein expression in MCF7, MCF7shctrl and shTau were quantify by Elisa. (B) Effect of 100 nM TSA (48 h) on cell death in the MCF7shctrl and MCF7shTau subclones. Cell death was determined by staining and flow cytometric analysis as described in the materials and methods. (C) Effect of 100 nM TSA (48 h) on apoptosis in the MCF7shctrl and MCF7shTau subclones. Apoptosis was determined by flow cytometric analysis of the PI-positive and Annexin-V-positive cells as described in the materials and methods. (D) Cell cycle distribution was determined by FACS analysis of combined propidium iodide and EdU staining in MCF7shctrl and MCF7shTau in the absence or presence 100 nM TSA, 48 h. Data are mean±SD **P<0.01***P<0.001. […]\nSH-SY5Y human neuroblastoma cells expressing Tau4R tagged with the streptavidin-binding peptide (SBP) (referred as SH-SY5Y-(SBP)Tau4R) (Chauderlier et al., 2018), SH-SY5Y-Tet-on-Tau4R, Hela cells, MCF7 and MDA-MB-231 were cultured in Dulbecco's Modified Eagle's Medium with 10% fetal bovine serum, 2 mM L-glutamine and 50 U/ml penicillin/streptomycin (Gibco) at 37° C. in 5% CO2 humidified air. […] For stable clones, luciferase activities were measured using the luciferase assay system (Promega) and normalized against protein concentration. […]"}, "MCF7shctrl and MCF7shTau": {"test_system": "MCF7shctrl and MCF7shTau", "assay": "Cell cycle distribution by FACS (propidium iodide and EdU staining)", "format": "cell-based, human", "conditions": "100 nM TSA, 48 h", "protocol": "FIG. 1: Tau inhibition increases MCF7 breast cancer cell line sensitivity to TSA. (A) Tau protein expression in MCF7, MCF7shctrl and shTau were quantify by Elisa. (B) Effect of 100 nM TSA (48 h) on cell death in the MCF7shctrl and MCF7shTau subclones. Cell death was determined by staining and flow cytometric analysis as described in the materials and methods. (C) Effect of 100 nM TSA (48 h) on apoptosis in the MCF7shctrl and MCF7shTau subclones. Apoptosis was determined by flow cytometric analysis of the PI-positive and Annexin-V-positive cells as described in the materials and methods. (D) Cell cycle distribution was determined by FACS analysis of combined propidium iodide and EdU staining in MCF7shctrl and MCF7shTau in the absence or presence 100 nM TSA, 48 h. Data are mean±SD **P<0.01***P<0.001. All results are representative of three independent experiments.\nSH-SY5Y human neuroblastoma cells expressing Tau4R tagged with the streptavidin-binding peptide (SBP) (referred as SH-SY5Y-(SBP)Tau4R) (Chauderlier et al., 2018), SH-SY5Y-Tet-on-Tau4R, Hela cells, MCF7 and MDA-MB-231 were cultured in Dulbecco's Modified Eagle's Medium with 10% fetal bovine serum, 2 mM L-glutamine and 50 U/ml penicillin/streptomycin (Gibco) at 37° C. in 5% CO2 humidified air. Transient and stable transfections experiments were performed using the lipofectamine 3000 reagent (Invitrogen). Transient luciferase assays were performed with the dual-luciferase assay system (Promega). For stable clones, luciferase activities were measured using the luciferase assay system (Promega) and normalized against protein concentration. […]\nCell cycle, Cell death and Apoptosis were analyzed with the Click-It Plus EdU Alexa Fluor 647 kit (Thermofisher), Zombie NIR dye (Zombie NIR Fixable Viability Kit—Biolegend) and Annexin V-FITC Apoptosis Detection Kit II (Calbiochem) according to the manufacturer's guideline. Fluorescence was analyzed using a LSR FORTESSA X20 cytometer (Becton Dickinson)."}, "[2]": {"test_system": "GAL4 UAS promoter in GAL4UAS responsive luciferase reporter Hela stable cell line", "assay": "ChIP-qPCR of H3 acetylation or Tau occupancy on the GAL4UAS promoter", "format": "cell-based", "source_text": "(A) Chromatin immunoprecipitations-qPCR analysis of H3 acetylation and Tau occupancy on the GAPDH promoter in MCF7shctrl cells in the indicated conditions. MCF7shctrl cells were subjected to cross-linking by 1% formaldehyde. Chromatin fragments were then immunoprecipitated using antibodies (Ab) against acetylated H3 (ac-H3) or Tau and analyzed by quantitative PCR for the presence of the GAPDH promoter. (B) Functional organization of the p21 promoter. (C) ChIP-qPCR analysis of H3 acetylation in MCF7shctrl or shTau cells or (D) Tau occupancy in MCF7shctrl cells on the p21 promoter. (E) ChIP-qPCR analysis of H3 acetylation or Tau occupancy on the stably transfected GAL4UAS responsive luciferase reporter transfected, or not, with Tau4R, then 24 h later treated with 100 nM TSA for 24 h. Cells were then subjected to cross-linking by 1% formaldehyde. Chromatin fragments were then immunoprecipitated using antibodies (Ab) against acetylated H3 or Tau and analyzed by quantitative PCR for the presence of the GAL4 UAS promoter. Quantification of enrichment is represented as fold-enrichment relative to IgG. Data are mean±SD **P<0.01***P<0.001\nThe ChIP protocol used was previously described (Lefebvre et al., 2006). […]"}}, "data": [{"smiles": "CC(/C=C/C(=O)NO)=C\\[C@@H](C)C(=O)c1ccc(N(C)C)cc1", "note": "[TSA, 2,4-Heptadienamide, 7-[4-(dimethylamino)phenyl]-N-hydroxy-4,6-dimethyl-7-oxo-, (2E,4E,6R)-]", "values": [{"measurement": "number of dead cells", "setting": "[1]; Tau-knockdown cells (MCF7shTau)", "value": "> 50", "unit": "%"}, {"measurement": "number of dead cells", "setting": "[1]; sh-ctrl cells (MCF7shctrl)", "value": 38, "unit": "%"}, {"measurement": "cells in G1", "setting": "MCF7shctrl and MCF7shTau; MCF7shTau", "value": 41.4, "unit": "%"}, {"measurement": "cells in G1", "setting": "MCF7shctrl and MCF7shTau; MCF7shctrl", "value": 39.6, "unit": "%"}, {"measurement": "cells in S-phase", "setting": "MCF7shctrl and MCF7shTau; MCF7shctrl", "value": 19.2, "unit": "%"}, {"measurement": "TSA-induced increase of ac-H3 in the presence of transfected Tau4R", "setting": "[2]; 100 nM TSA, Tau4R transfected HeLa cells", "value": "abrogated"}, {"measurement": "Tau4R enrichment", "setting": "[2]; TSA-treated condition (100 nM), Tau4R transfected", "value": 16, "unit": "fold"}]}]}
